Results published in US12440502B2, “Use of thyroid beta-agonists” (priority 2016, dated 2025).

What was measured:
[1] = tested on: X-ALD fibroblast cell lines; experiment: Cell health (proliferation, morphology, death) of treated X-ALD fibroblasts; format: cell-based, human; settings: for cell survival of X-ALD cell lines: 100 μM, two X-ALD cell lines; for proliferation and morphology of cells: after 72 hours
Method: Human primary fibroblasts. Human skin fibroblasts were obtained from X-ALD patients through the Neurology Outpatient Clinic of the Academic Medical Center. Written informed consent was received from each patient. X-ALD diagnosis was confirmed by VLCFA and ABCD1 mutation analysis. Control fibroblasts were obtained from male anonymous volunteers with written informed consent. Fibroblasts were cultured in Dulbecco's modified Eagle's medium (DMEM) with L-glutamine and 4.5 g/L glucose, supplemented with 10% fetal calf serum, 2.5 mM HEPES, 100 U/ml penicillin and 100 U/ml streptomycin. Cells were cultured at 37° C. in a humidified 5% CO2 atmosphere. All fibroblast cell lines used were tested routinely for mycoplasma. All tests were negative.
Preparation of stock solutions. 10 mM stock solutions in DMSO were prepared by weighing the amount of compound (1 and 3 and their respective active metabolites, 2 and 4) as indicated in Table 2. Stock solutions were stored at room temperature in the dark. For each incubation, the amount of tissue culture medium needed was calculated and a stock solution of tissue culture medium with the final concentration of the to-be-tested compound was prepared. Tissue culture medium was removed from the cells, cells were washed once with PBS and the tissue culture medium with the compounds was added. If an experiment lasted longer than three days, the tissue culture medium and compounds were refreshed (using a fresh preparation) after three days until the end of the experiment.
Two different X-ALD fibroblast cell lines were incubated in duplicate with four compounds at three dosages as highlighted in Table 3.
4 X-ALD cell lines were incubated with 10 μM of 4 compounds 1, 2, 3, and 4. The effect of treatment on ABCD2 expression was analyzed at day 3 and day 10. For the 10 day incubation, tissue culture medium and compounds were refreshed at day 3 and day 6.

ABCD1−/− mice [2] = experiment: Plasma VLCFA-LPC levels in an in vivo model of X-ALD (second cohort); set-up: species or system mouse
Method: (§1) Animals. Male ABCD1−/− mice were developed using the Taconic 129SvEv background strain. Animals were housed 3-4/cage under a 12-hour lighting cycle (7 AM-7 PM light) and controlled temperature (22° C.) in the rodent facility. They were fed standard mouse chow and had access to drinking water ad libitum. Mice were between 2 and 3 months of age at the beginning of each study.
(§2) Study Protocol. Mice were injected once daily intraperitoneal with either drug or vehicle. For blood collection, ˜50 μL of blood was obtained by facial vein puncture using a sterile lancet. Blood was collected in a 1.5 ml microcentrifuge tube containing dried dipotassium EDTA and mixed by gentle inversion at least ten times before storing at −20° C. Blood was obtained in this manner following two, four, and six weeks of treatment. Following blood collection at six weeks, animals were sacrificed by cervical dislocation. Additional blood for preparation of plasma was obtained via cardiac puncture, and blood placed in Microtainer tubes. Brain, spinal cord, adrenal glands, testis, and liver were excised and snap frozen in liquid nitrogen for future analyses.
(§3) Based on the encouraging results of the initial cohort, a second, larger, cohort was evaluated. A total of 20 mice were randomized 1:1 to receive daily compound 3 or vehicle, by IP administration, for six weeks.
During the second cohort study, blood was obtained as described in the Methods section. At the six week time point sufficient blood was collected to permit plasma VLCFA analyses at weeks two, four and six. Plasma is considered by many to be a more reliable measurement of VLCFA levels, because of reduced analytical interference from other analytes, as well as reduced variability of the measurements.

ABCD1−/− mice [3] = experiment: Whole blood VLCFA-LPC levels in an in vivo model of X-ALD; set-up: species or system mouse; settings: for C26:0-LPC Difference in Mean Change from Baseline / C26:0-LPC % Difference versus Vehicle: initial cohort, whole blood; for Least Squares Mean Change from Baseline Whole Blood C26:0-LPC Levels: second cohort, daily IP
Method: as §1, §2
An initial cohort of 16 mice were randomized 3:1 to receive compound 3 or placebo, once daily for six weeks. […] Treated animals continued to experience progressive declines in C26:0-LPC through six weeks.
as §3

X-ALD cell lines [4] = experiment: De novo D3-C26:0 synthesis from D3-C22:0 in intact X-ALD cells; format: cell-based, human; settings: 10 day treatment, 5 X-ALD cell lines
Method: The effect of treatment on D3-C26:0 synthesis in intact cells. The effect of certain compounds of the invention on the synthesis of D3-C26:0 from D3-C22:0 was measured in cultured skin fibroblasts from controls and X-ALD patients. Cells were seeded at approximately 40% confluency in T75 flasks in DMEM. The next day, medium was replaced with medium containing 30 μM D3-C22:0 and the assayed compounds at their final concentration. […] Each 72 h, the tissue culture medium and compounds was refreshed. At the end of the experiment cells were harvested and VLCFA analyzed as described (Valianpour et al., Molecular Genetics and Metabolism, 79: 189-196 (2003)).
(§4) VLCFA measurement. VLCFA were analyzed by electrospray ionization mass spectrometry (ESI-MS) as described (Valianpour et al., Molecular Genetics and Metabolism, 79: 189-196 (2003)).
(§5) 5 different X-ALD cell lines were incubated for 6 days with compounds 1, 2, 3, and 4 at 10 μM, 5 mM 4PBA (sodium 4-phenylbutyrate), or 0.1 μM sobetirome. On Day 6, 30 μM D3C22:0 was added to assess the effect of treatment on beta-oxidation and de novo D3C26:0 synthesis. 6 untreated control cells as well as 5 different untreated X-ALD cells were included to allow assessment of the treatment effect. The total set consisted of 41 experiments

X-ALD cell lines [5] = experiment: D3-C22:0 (VLCFA) beta-oxidation in intact X-ALD cells; format: cell-based, human; settings: 0.1 μM; 10 day treatment; 5 X-ALD cell lines
Method: The effect of treatment on D3-C22:0 beta-oxidation in intact cells. Peroxisomal beta-oxidation activity was measured essentially as described by incubating cells with 30 μM deuterium-labeled C22:0 (D3-C22:0) (Kemp et al., Clinical Chemistry 50: 1824-1826 (2004)). Cells were seeded at approximately 40% confluency in T75 flasks in DMEM. The next day, medium was replaced with medium containing 30 μM D3-C22:0 and assayed compounds at their final concentration. […] Each 72 h, the tissue culture medium and compounds was refreshed. At the end of the experiment cells were harvested and VLCFA analyzed as described (Valianpour et al., Molecular Genetics and Metabolism, 79: 189-196 (2003)).
as §4, §5

Cc1cc(OC[P@@]2(=O)OCC[C@@H](c3cccc(Cl)c3)O2)cc(C)c1Cc1ccc(O)c(C(C)C)c1 [Compound 1]
cell survival of X-ALD cell lines [1]: dead within 24 hours | proliferation and morphology of cells ([1]; 0.1 or 10 μM): looked healthy

Cc1cc(OCP(=O)(O)O)cc(C)c1Cc1ccc(O)c(C(C)C)c1 [Compound 2]
proliferation and morphology of cells ([1]; 0.1, 1 or 10 μM): looked healthy

Cc1cc(OCP(=O)(OCOC(=O)C(C)(C)C)OCOC(=O)C(C)(C)C)cc(C)c1Cc1ccc(O)c(Cc2ccccc2)c1 [Compound 3]
cell survival of X-ALD cell lines [1]: dead within 24 hours | proliferation and morphology of cells ([1]; 0.1 or 10 μM): looked healthy | Plasma C20:0-LPC % Difference vs. Vehicle (ABCD1−/− mice [2]; week 6, p<0.0001): −54% | Plasma C22:0-LPC % Difference vs. Vehicle (ABCD1−/− mice [2]; week 6, p<0.0001): −43% | Plasma C26:0-LPC % Difference vs. Vehicle (ABCD1−/− mice [2]; week 6, p<0.0001): −29% | Plasma C24:0-LPC % Difference vs. Vehicle (ABCD1−/− mice [2]; week 6, p<0.005): −21% | C20:0-, C22:0-, and C24:0-LPC levels (ABCD1−/− mice [3]; after six weeks of treatment): significant reductions | C26:0-LPC Difference in Mean Change from Baseline (ABCD1−/− mice [3]; week 2): -0.052 µM | C26:0-LPC % Difference versus Vehicle (ABCD1−/− mice [3]; week 2, p NS): 0% | C26:0-LPC Difference in Mean Change from Baseline (ABCD1−/− mice [3]; week 4): -0.081 µM | C26:0-LPC % Difference versus Vehicle (ABCD1−/− mice [3]; week 4, p NS): −11% | C26:0-LPC % Difference versus Vehicle (ABCD1−/− mice [3]; week 6, p<0.0001): −40% | Least Squares Mean Change from Baseline Whole Blood C26:0-LPC Levels (ABCD1−/− mice [3]; week 2, p NS versus vehicle): -0.021 µM | Least Squares Mean Change from Baseline Whole Blood C26:0-LPC Levels (ABCD1−/− mice [3]; week 4, p<0.01 versus vehicle): -0.096 µM | Least Squares Mean Change from Baseline Whole Blood C26:0-LPC Levels (ABCD1−/− mice [3]; week 6, p<0.005 versus vehicle): -0.12 µM

O=C([O-])CCCc1ccccc1.[Na+] [Compound 4PBA, sodium 4-phenylbutyrate]
VLCFA synthesis (X-ALD cell lines [4]; 5 mM): near normal levels

Cc1cc(OCP(=O)(O)O)cc(C)c1Cc1ccc(O)c(Cc2ccccc2)c1 [Compound 4]
proliferation and morphology of cells ([1]; 0.1, 1 or 10 μM): looked healthy

Cc1cc(OCC(=O)O)cc(C)c1Cc1ccc(O)c(C(C)C)c1 [sobetirome]
effect on VLCFA beta-oxidation (X-ALD cell lines [5]): did not show any beneficial effect | effect on VLCFA de novo synthesis (X-ALD cell lines [4]; 0.1 μM): did not show any beneficial effect
